{
  "source": "patent US20250230193A1",
  "about": "“CYCLIC COMPOUND HAVING SELECTIVE KRAS INHIBITORY EFFECT ON HRAS AND NRAS” (CHUGAI SEIYAKU KABUSHIKI KAISHA, priority 2022, published 2025)",
  "key": {"[1]": {"molecular_target": "GDP-bound NRAS wild-type protein (Homo sapiens, UniProt P01111)", "sequence (P01111 whole entry)": "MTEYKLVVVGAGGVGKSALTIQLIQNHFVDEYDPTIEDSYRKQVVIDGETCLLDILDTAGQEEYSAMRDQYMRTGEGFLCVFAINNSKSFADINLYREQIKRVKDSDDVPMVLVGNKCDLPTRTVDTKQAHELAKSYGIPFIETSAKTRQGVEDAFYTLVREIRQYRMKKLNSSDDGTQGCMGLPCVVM", "experiment": "Binding to NRAS by surface plasmon resonance (SPR), Single Cycle Kinetics", "settings": "SPR; for NRAS/KRAS (ratio of KD value with respect to NRAS to KD value with respect to KRAS) / NRAS/KRAS (ratio of KD value for NRAS to KD value for KRAS): GDP-bound NRAS wild-type vs GDP-bound KRAS wild-type"}, "[2]": {"molecular_target": "GDP-bound HRAS wild-type protein (Homo sapiens, UniProt P01112)", "sequence (P01112 whole entry)": "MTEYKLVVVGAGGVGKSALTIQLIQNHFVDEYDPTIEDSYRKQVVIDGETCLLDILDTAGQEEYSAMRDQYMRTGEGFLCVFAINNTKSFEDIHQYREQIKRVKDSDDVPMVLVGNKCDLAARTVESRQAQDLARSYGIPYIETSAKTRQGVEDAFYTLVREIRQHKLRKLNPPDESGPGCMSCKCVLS", "experiment": "Binding to HRAS by surface plasmon resonance (SPR), Single Cycle Kinetics", "settings": "SPR; for HRAS/KRAS (ratio of KD value with respect to HRAS to KD value with respect to KRAS) / HRAS/KRAS (ratio of KD value for HRAS to KD value for KRAS): GDP-bound HRAS wild-type vs GDP-bound KRAS wild-type"}},
  "note": "*1 amine or outer side, *2 acyl side, *3 side chain or, on linkers, in order; H or OH if unused. Where a SMILES comes first, the peptide text is derived from it. Bridges are numbered along the chain shown (N, C = ends). [ ]: non-standard residue; d: D form. The star is where a group is joined. hPhe(3-Cl-4-CF3) = N[C@@H](CCc1ccc(C(F)(F)F)c(Cl)c1)C(=O)O; X23 = CC(C)CN([C@@H](Cc1ccc(C(F)(F)F)cc1)C(=O)[*:2])[*:1]; NPrPhe(4-CF3) = CCCN[C@@H](Cc1ccc(C(F)(F)F)cc1)C(=O)O; X40 = CCCN([C@@H](Cc1ccc(OC)cc1)C(=O)[*:2])[*:1]; NMeGly(cPent) = CN[C@H](C(=O)O)C1CCCC1; NMeD = CN[C@@H](CC(=O)O)C(=O)O; NMeL = CN[C@@H](CC(C)C)C(=O)O; NMeS = CN[C@@H](CO)C(=O)O; Morpholide = C1CN(*)CCO1; NMeA = CN[C@@H](C)C(=O)O; Ac5c = NC1(C(=O)O)CCCC1; Aze = O=C(O)[C@@H]1CCN1; Sar = CNCC(=O)O",
  "data": [
    {"smiles": "CCO[C@@H]1C[C@H]2C(=O)NC3(CCC3)C(=O)N(C)[C@@H](C3CCCC3)C(=O)N(C)[C@H](C(=O)N(C)C)CC(=O)N(C)[C@@H](CC)C(=O)N[C@@H]([C@@H](C)CC)C(=O)N(C)CC(=O)N(C)[C@H]3CCCCN(C3=O)[C@@H](Cc3ccc(C(F)(F)F)cc3)C(=O)N(C)CC(=O)N[C@@H](CCc3cc(Cl)c(Cl)c(Cl)c3)C(=O)N2C1", "note": "[PP0988]", "values": [
      {"measurement": "NRAS/KRAS (ratio of KD value with respect to NRAS to KD value with respect to KRAS)", "setting": "[1]; KD ratio", "result": "C (A compound having a KD ratio of 0.1 or more and less than 3 is denoted as C)"},
      {"measurement": "HRAS/KRAS (ratio of KD value with respect to HRAS to KD value with respect to KRAS)", "setting": "[2]; KD ratio", "result": "B (a compound having 3 or more and less than 10 is denoted as B)"}
    ]},
    {"smiles": "CCO[C@@H]1C[C@H]2C(=O)NC3(CC(C)(C)C3)C(=O)N(C)[C@@H](C3CCCC3)C(=O)N(C)[C@H](C(=O)N3CCCC3)CC(=O)N(C)[C@H]3CCCCCCc4ccc(cc4)C[C@@H](C(=O)N(C)CC(=O)N[C@@H](CCc4ccc(C(F)(F)F)c(OC)c4)C(=O)N2C1)N1CC/C=C\\C[C@@H](C1=O)N(C)C(=O)CN(C)C(=O)[C@H]([C@@H](C)CC)NC3=O", "note": "[PP3034, (1S,7S,11R,13S,19S,22S,26S,29S,35S,37Z)-19-cyclopentyl-11-ethoxy-7-[2-[3-methoxy-4-(trifluoromethyl)phenyl]ethyl]-3,3′,3′,18,21,25,31,34-octamethyl-29-[(1S)-1-methylpropyl]-22-(pyrrolidine-1-carbonyl)spiro[3,6,9,15,18,21,25,28,31,34,41-undecazapentacyclo[24.15.11.2^43,46.1^35,41.0^9,13]pentapentaconta-37,43(54),44,46(53)-tetraene-16,1′-cyclobutane]-2,5,8,14,17,20,24,27,30,33,55-undecone]", "values": [
      {"measurement": "NRAS/KRAS (ratio of KD value with respect to GDP-bound NRAS wild-type protein to KD value with respect to KRAS)", "setting": "[1]; KD ratio NRAS/KRAS, GDP-bound wild-type proteins", "result": "A (a compound having 10 or more and less than 20 is denoted as A)"},
      {"measurement": "HRAS/KRAS (ratio of KD value with respect to GDP-bound HRAS wild-type protein to KD value with respect to KRAS)", "setting": "[2]; KD ratio HRAS/KRAS, GDP-bound wild-type proteins", "result": "B (a compound having 3 or more and less than 10 is denoted as B)"}
    ]},
    {"smiles": "CCCN1C(=O)CN(C)C(=O)CN(C)C(=O)[C@H]([C@@H](C)CC)NC(=O)[C@H](CC(C)C)N(C)C(=O)C[C@@H](C(=O)N2CCOCC2)N(C)C(=O)[C@H](C2CCCC2)N(C)C(=O)C2(CCCC2)NC(=O)[C@H](COC)N(C)C(=O)[C@H](CCc2ccc(C(F)(F)F)c(Cl)c2)NC(=O)CN(C)C(=O)[C@@H]1Cc1ccc(C(F)(F)F)cc1", "note": "[PP1920] ([NMeL]I[Sar][Sar][NPrPhe(4-CF3)][Sar][hPhe(3-Cl-4-CF3)][NMeS](Me)[Ac5c][NMeGly(cPent)][NMeD]-Morpholide; lactam N-11)", "values": [
      {"measurement": "NRAS/KRAS (ratio of KD value for NRAS to KD value for KRAS)", "setting": "[1]; KD ratio", "result": "B (a compound having 3 or more and less than 10 is denoted as B)"},
      {"measurement": "HRAS/KRAS (ratio of KD value for HRAS to KD value for KRAS)", "setting": "[2]; KD ratio", "result": "C (A compound having a KD ratio of 0.1 or more and less than 3 is denoted as C)"}
    ]},
    {"smiles": "CC[C@H](C)[C@@H]1NC(=O)[C@H](CC(C)C)N(C)C(=O)C[C@@H](C(=O)N2CCOCC2)N(C)C(=O)[C@H](C2CCCC2)N(C)C(=O)C2(CCCC2)NC(=O)[C@@H]2CCCN2C(=O)[C@H](CCc2ccc(C(F)(F)F)c(Cl)c2)NC(=O)CN(C)C(=O)[C@H](Cc2ccc(C(F)(F)F)cc2)N(CC(C)C)C(=O)[C@@H]2CCN2C(=O)[C@H](C)N(C)C1=O", "note": "[PP0107] ([NMeL]I[NMeA][Aze][X23][Sar][hPhe(3-Cl-4-CF3)]P[Ac5c][NMeGly(cPent)][NMeD]-Morpholide; lactam N-11)", "values": [
      {"measurement": "NRAS/KRAS (ratio of KD for GDP-bound NRAS wild-type to KD for KRAS)", "setting": "[1]; KD ratio NRAS/KRAS", "result": "C (A compound having a KD ratio of 0.1 or more and less than 3 is denoted as C)"},
      {"measurement": "HRAS/KRAS (ratio of KD for GDP-bound HRAS wild-type to KD for KRAS)", "setting": "[2]; KD ratio HRAS/KRAS", "result": "C (A compound having a KD ratio of 0.1 or more and less than 3 is denoted as C)"}
    ]},
    {"smiles": "CCCN1C(=O)CN(C)C(=O)CN(C)C(=O)[C@H]([C@@H](C)CC)NC(=O)[C@H](CC(C)C)N(C)C(=O)C[C@@H](C(=O)N2CCOCC2)N(C)C(=O)[C@H](C2CCCC2)N(C)C(=O)C2(CCCC2)NC(=O)[C@@H]2CCCN2C(=O)[C@H](CCc2ccc(C(F)(F)F)c(Cl)c2)NC(=O)CN(C)C(=O)[C@@H]1Cc1ccc(OC)cc1", "note": "[PP0135] ([NMeL]I[Sar][Sar][X40][Sar][hPhe(3-Cl-4-CF3)]P[Ac5c][NMeGly(cPent)][NMeD]-Morpholide; lactam N-11)", "values": [
      {"measurement": "NRAS/KRAS (ratio of KD for GDP-bound NRAS wild-type to KD for KRAS)", "setting": "[1]; KD ratio NRAS/KRAS", "result": "B (a compound having 3 or more and less than 10 is denoted as B)"},
      {"measurement": "HRAS/KRAS (ratio of KD for GDP-bound HRAS wild-type to KD for KRAS)", "setting": "[2]; KD ratio HRAS/KRAS", "result": "C (A compound having a KD ratio of 0.1 or more and less than 3 is denoted as C)"}
    ]},
    {"smiles": "C=CCN1CC(=O)N(C)[C@H]2C/C=C\\CCN(C2=O)[C@@H](Cc2ccc(C)cc2)C(=O)N(C)CC(=O)N[C@@H](CCc2ccc(C(F)(F)F)c(OC)c2)C(=O)N2C[C@H](OCC)C[C@H]2C(=O)NC2(CC(C)(C)C2)C(=O)N(C)[C@@H](C2CCCC2)C(=O)N(C)[C@H](C(=O)N(C)C)CC(=O)N(C)[C@@H](CCC)C(=O)N[C@@H]([C@@H](C)CC)C1=O", "note": "[PP2098]", "values": [
      {"measurement": "NRAS/KRAS (ratio of KD value with respect to NRAS to KD value with respect to KRAS)", "setting": "[1]", "result": "A (a compound having 10 or more and less than 20 is denoted as A)"},
      {"measurement": "HRAS/KRAS (ratio of KD value with respect to HRAS to KD value with respect to KRAS)", "setting": "[2]", "result": "A (a compound having 10 or more and less than 20 is denoted as A)"}
    ]},
    {"smiles": "CCC[C@H]1C(=O)N[C@@H]([C@@H](C)CC)C(=O)N(C)CC(=O)N(C)[C@H]2C/C=C\\CCN(C2=O)[C@@H](Cc2ccc(C(F)(F)F)cc2)C(=O)N(C)CC(=O)N[C@@H](CCc2cc(F)c(C(F)(F)F)c(F)c2)C(=O)N2C[C@H](OCC)C[C@H]2C(=O)NC2(CC(C)(C)C2)C(=O)N(C)[C@@H](C2CCCC2)C(=O)N(C)[C@H](C(=O)N(C)C)CC(=O)N1C", "note": "[PP1645]", "values": [
      {"measurement": "NRAS/KRAS (ratio of KD value for NRAS to KD value for KRAS)", "setting": "[1]; KD ratio", "result": "A (a compound having 10 or more and less than 20 is denoted as A)"},
      {"measurement": "HRAS/KRAS (ratio of KD value for HRAS to KD value for KRAS)", "setting": "[2]; KD ratio", "result": "A (a compound having 10 or more and less than 20 is denoted as A)"}
    ]}
  ]
}
